Test results reported in patent publication US20110269763A1, “CRTH2 receptor ligands for medicinal uses” (7TM Pharma A/S, priority 2004, published 2011).

Experiments:
[1] = molecular target: T1, human CRTH2 (Homo sapiens, UniProt Q9Y5Y4, V204A); test: Functional antagonist BRET assay on HEK293 cells stably expressing human CRTH2-Rluc and GFP2-β-arr2; assay type: cell-based; set-up: expressed in transfected cells; details: read-out: Antag. IC50
T1 sequence (Q9Y5Y4 1-395 V204A): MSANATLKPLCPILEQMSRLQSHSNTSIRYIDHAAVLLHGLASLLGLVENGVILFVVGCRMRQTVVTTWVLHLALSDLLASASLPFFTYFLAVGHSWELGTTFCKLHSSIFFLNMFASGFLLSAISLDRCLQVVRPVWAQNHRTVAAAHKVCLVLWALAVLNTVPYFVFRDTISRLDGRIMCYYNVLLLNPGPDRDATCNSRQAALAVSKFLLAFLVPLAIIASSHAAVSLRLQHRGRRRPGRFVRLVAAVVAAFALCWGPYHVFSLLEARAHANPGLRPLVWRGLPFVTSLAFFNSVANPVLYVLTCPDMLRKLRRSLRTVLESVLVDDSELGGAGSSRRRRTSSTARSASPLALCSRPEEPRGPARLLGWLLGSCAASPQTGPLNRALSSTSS
From the text: (§1) Generation/origin of the cDNA Constructs. The coding sequence of the human CRTH2 receptor (genbank accession no NM_004778) was amplified by PCR from a human hippocampus cDNA library and inserted into the pcDNA3.1(+) expression vector (invitrogen) via 5′ HindIII and 3′ EcoRI. To generate a CRTH2-Renilla luciferase (CRTH2-Rluc) fusion protein, the CRTH2 coding sequence without a STOP codon and Rluc were amplified, fused in frame by PCR and subcloned into the pcDNA3.1(+)Zeo expression vector (invitrogen). Human β-arrestin2 (β-arr2) N-terminally tagged with GFP^2 (βarr2-GFP^2) and Renilla luciferase were purchased from BioSignal Packard Inc, (Montreal, Canada). The sequence identity of the construct was verified by restriction endonuclease digests and sequencing in both directions on an ABI Prism (Applied Biosystems, Foster City, Calif.).
(§2) Cell Culture and Transfection. COS-7 cells were grown in Dulbecco's modified Eagle's medium (DMEM) 1885 supplemented with 10% fetal bovine serum, 100 units/ml penicillin, […] streptomycin, and kept at 37° C. in a 10% CO2 atmosphere. HEK293 cells were maintained in Minimum Essential medium (MEM) supplemented with 10% (v/v) heat inactivated fetal calf serum (HIFCS), 2 mM Glutamax™-I, 1% non essential amino acids (NEAA), 1% sodium pyruvate and 10 μg/ml gentamicin. For binding experiments, COS7 cells were transiently transfected with the CRTH2 receptor using a calcium phosphate-DNA coprecipitation method with the addition of chloroquine (as described by Holst et al., 2001↓). To perform the functional Bioluminescence Resonance Energy Transfer (BRET) assays, a HEK293 cell clone stably expressing βarr2-GFP^2 and CRTH2-Rluc was generated (CRTH2-HEK293 cells).
BRET assay. Functional BRET assays were performed on HEK293 cells stably expressing human CRTH2-Rluc and GFP^2-β-arr2. Prior to their use in the BRET assay cells were detached and re-suspended in D-PBS with 1000 mg/L L-Glucose at a density of 2×10^6 cells/mL. DeepBlueC™ was diluted to 50 μM in D-PBS with 1000 mg/L L-Glucose (light sensitive). 100 μL of cell suspension was transferred to wells in a 96-well microplate (white OptiPlate) and placed in the Mithras LB 940 instrument (BERTHOLD TECHNOLOGIES, Bad Wildbad, Germany). 12 μL/well agonist was then injected by injector 1 and 10 μL/well DeepBlueC™ was injected simultaneously by injector 2. Five seconds after the injections the light output from the well was measured sequentially at 400 nm and 515 nm, and the BRET signal (mBRET ratio) was calculated by the ratio of the fluorescence emitted by GFP^2-β-arr2 (515 nm) over the light emitted by the receptor-Rluc (400 nm). Antagonists were added before placing the microplates into the Mithras LB 940 and allowed to incubate for 15 minutes prior to the addition of agonist and DeepBlueC™. Compounds were dissolved in DMSO and the final DMSO concentration was kept constant at 1% in the assay.
(§3) Curve analysis was performed with the GraphPadPrism software 3.0 (Graphpad Prism Inc., San Diego, USA) and IC50 values were calculated as a measure of the antagonistic potencies.

[2] = molecular target: T1, human CRTH2; test: Receptor binding assay: [3H]PGD2 competition binding on whole COS-7 cells transiently transfected with CRTH2 (also stable HEK293 cells); set-up: expressed in transfected cells; host or cells: COS-7 (transient, calcium phosphate)
From the text: as §1, §2
Binding assay. 24 h after transfection COS-7 cells were seeded into 96 well plates at a density of 30.000 cells/well. Competition binding experiments on whole cells were then performed about 18-24 h later using 0.1 nM [^3H]PGD2 (NEN, 172 Ci/mmol) in a binding buffer consisting of HBSS (GIBCO) and 10 mM HEPES. Competing ligands were diluted in DMSO which was kept constant at 1% (v/v) of the final incubation volume. Total and nonspecific binding were determined in the absence and presence of 10 μM PGD2. Binding reactions were routinely conducted for 3 h at 4° C. and terminated by 2 washes (100 μl each) with ice cold binding buffer. Radioactivity was determined by liquid scintillation counting in a TOPCOUNTER (Packard) following over night incubation in Microscint 20. Stable HEK293 cells were seeded at a density of 30.000 cells/well 18-24 h prior to the binding assay which was performed essentially as described for COS7 cells above. Determinations were made in duplicates.
as §3

[3] = functional antagonist assay, Table 3
[4] = receptor binding assay, Table 3
[5] = BRET, antagonist incubated 15 minutes prior to agonist
[6] = competition with 0.1 nM [3H]PGD2, whole cells, 3 h at 4° C.

| Compound | IC50 [1, 3] [µM] | IC50 [2, 4] [µM] | IC50 [1, 5] [µM] | IC50 [2, 6] [µM] |
| --- | --- | --- | --- | --- |
| COc1ccc(-c2noc(-c3cc(Br)ccc3OCC(=O)O)n2)cc1 [D101, {4-Bromo-2-[3-(4-methoxy-phenyl)-[1,2,4]oxadiazol-5-yl]phenoxy}acetic acid] | < 0.5 | < 0.5 |  |  |
| O=C(O)COc1ccc(-c2cc(F)cc(F)c2)cc1C(=O)c1cnn(-c2ccccc2)c1 [D8, [3′,5′-Difluoro-3-(1-phenyl-1H-pyrazole-4-carbonyl)biphenyl-4-yloxy]acetic acid] |  |  | 0.5 to 5 | < 0.5 |
| O=C(O)COc1ccc(Br)cc1-c1nc(-c2ccc(C(F)(F)F)cc2)no1 [D106, {4-Bromo-2-[3-(4-trifluoromethyl-phenyl)-[1,2,4]oxadiazol-5-yl]phenoxy}-acetic acid] | < 0.5 | < 0.5 |  |  |
| COc1ccccc1-c1noc(-c2cc(Br)ccc2OCC(=O)O)n1 [D107, {4-Bromo-2-[3-(2-methoxyphenyl)-[1,2,4]oxadiazol-5-yl]phenoxy}acetic acid] | < 0.5 | < 0.5 |  |  |
| O=C(O)COc1ccc(Br)cc1-c1nc(Cc2ccccc2Cl)no1 [D120, {4-Bromo-2-[3-(2-chloro-benzyl)-[1,2,4]oxadiazol-5-yl]-phenoxy}-acetic acid] | < 0.5 | < 0.5 |  |  |
| Cc1ccc(OCC(=O)O)c(C(=O)c2cnn(-c3ccccc3)c2)c1 [D11, [4-Methyl-2-(1-phenyl-1H-pyrazole-4-carbonyl)phenoxy]acetic acid] |  |  | 0.5 to 5 | < 0.5 |
| O=C(O)COc1ccc(Br)cc1C(=O)c1cnn(-c2c(Cl)cncc2Cl)c1 [D80, {4-Bromo-2-[1-(3,5-dichloropyridin-4-yl)-1H-pyrazole-4-carbonyl]phenoxy}acetic acid] |  |  | < 0.5 | < 0.5 |
| {4-Bromo-2-[1-(4-bromo-2-chlorophenyl)-1H-pyrazole-4-carbonyl]phenoxy}acetic acid [D67] |  |  | < 0.5 | < 0.5 |
| O=C(O)COc1ccc(Br)cc1C(=O)c1cnn(-c2cccc(Br)c2)c1 [D24, 4-Bromo-2-[1-(3-bromophenyl)-1H-pyrazole-4-carbonyl]phenoxyacetic acid] |  |  | < 0.5 | < 0.5 |
| COc1ccccc1Cc1noc(-c2cc(Br)ccc2OCC(=O)O)n1 [D119, {4-Bromo-2-[3-(2-methoxy-benzyl)-[1,2,4]oxadiazol-5-yl]-phenoxy}-acetic acid] | < 0.5 | < 0.5 |  |  |
| Cc1cccc(C)c1-n1cc(C(=O)c2cc(Br)ccc2OC(C)C(=O)O)cn1 (stereo not shown) [D77, 2-{4-Bromo-2-[1-(2,6-dimethylphenyl)-1H-pyrazole-4-carbonyl]phenoxy}propionic acid] |  |  | < 0.5 | < 0.5 |
| O=C(O)COc1ccc(Br)cc1C(=O)c1cnn(-c2ccc(C(F)(F)F)cc2)c1 [D81, {4-Bromo-2-[1-(4-trifluoromethylphenyl)-1H-pyrazole-4-carbonyl]phenoxy}acetic acid] |  |  | < 0.5 | < 0.5 |
| CCOc1ccccc1-n1cc(C(=O)c2cc(Br)ccc2OCC(=O)O)cn1 [D41, {4-Bromo-2-[1-(2-ethoxyphenyl)-1H-pyrazole-4-carbonyl]phenoxy}acetic acid] |  |  | < 0.5 | < 0.5 |
| COc1ccc(-c2ccc(-c3nc(-c4cc(Br)ccc4OCC(=O)O)no3)cc2)cc1 [D134, {4-Bromo-2-[5-(4′-methoxybiphenyl-4-yl)-[1,2,4]oxadiazol-3-yl]phenoxy}acetic acid] |  |  | < 0.5 | < 0.5 |
| O=C(O)COc1ccc(Br)cc1-c1nc(Cc2ccc(F)cc2)no1 [D116, {4-Bromo-2-[3-(4-fluoro-benzyl)-[1,2,4]oxadiazol-5-yl]-phenoxy}-acetic acid] | < 0.5 | < 0.5 |  |  |
| O=C(O)COc1ccc(Br)cc1-c1nc(-c2ccc(OC(F)(F)F)cc2)no1 [D103, {4-Bromo-2-[3-(4-trifluoromethoxyphenyl)-[1,2,4]oxadiazol-5-yl]phenoxy}acetic acid] | < 0.5 | < 0.5 |  |  |

Other lines, results leading:

| IC50 [1, 3] [µM] | IC50 [2, 4] [µM] | IC50 [1, 5] [µM] | IC50 [2, 6] [µM] | Compound |
| --- | --- | --- | --- | --- |
| < 0.5 | < 0.5 |  |  | O=C(O)COc1ccc(Br)cc1-c1nc(Cc2ccccc2)no1 [D115, [2-(3-Benzyl-[1,2,4]oxadiazol-5-yl)-4-bromo-phenoxy]-acetic acid] |
| < 0.5 | < 0.5 |  |  | O=C(O)COc1ccc(Br)cc1-c1nc(-c2cccc(Cl)c2)no1 [D105, {4-Bromo-2-[3-(3-chlorophenyl)-[1,2,4]oxadiazol-5-yl]phenoxy}acetic acid] |
| < 0.5 | < 0.5 |  |  | O=C(O)COc1ccc(Br)cc1-c1nc(Cc2ccccc2C(F)(F)F)no1 [D127, {4-Bromo-2-[3-(2-trifluoromethylbenzyl)-[1,2,4]oxadiazol-5-yl]phenoxy}-acetic acid] |
|  |  | < 0.5 | < 0.5 | O=C(O)COc1ccc(Br)cc1-c1noc(-c2ccccc2Cl)n1 [D137, {4-Bromo-2-[5-(2-chlorophenyl)-[1,2,4]oxadiazol-3-yl]phenoxy}acetic acid] |
|  |  | < 0.5 | < 0.5 | O=C(O)COc1ccc(Br)cc1C(=O)c1cnn(-c2ccccc2F)c1 [D22, 4-Bromo-2-[1-(2-fluorophenyl)-1H-pyrazole-4-carbonyl]phenoxyacetic acid] |
|  |  | < 0.5 | < 0.5 | O=C(O)COc1ccc(Br)cc1C(=O)c1cnn(-c2ccc(Cl)cc2Cl)c1 [D26, 4-Bromo-2-[1-(2,4-dichlorophenyl)-1H-pyrazole-4-carbonyl]phenoxyacetic acid] |
| < 0.5 | < 0.5 |  |  | O=C(O)COc1ccc(Br)cc1-c1nc(-c2ccc(F)cc2)no1 [D100, {4-Bromo-2-[3-(4-fluoro-phenyl)-[1,2,4]oxadiazol-5-yl]phenoxy}acetic acid] |
|  |  | < 0.5 | < 0.5 | O=C(O)COc1ccc(Br)cc1-c1noc(-c2cccc(Cl)c2)n1 [D136, {4-Bromo-2-[5-(3-chlorophenyl)-[1,2,4]oxadiazol-3-yl]phenoxy}acetic acid] |
|  |  | < 0.5 | < 0.5 | O=C(O)COc1ccc(Br)cc1CC1SC(=O)N(CC(=O)c2ccc(Cl)cc2)C1=O (stereo not shown) [D143, 4-Bromo-2-{3-[2-(4-chlorophenyl)-2-oxoethyl]-2,4-dioxothiazolidin-5-ylmethyl}phenoxyacetic acid] |
| < 0.5 | < 0.5 |  |  | O=C(O)COc1ccc(Br)cc1-c1nc(-c2ccc(Oc3ccccc3)cc2)no1 [D111, {4-Bromo-2-[3-(4-phenoxy-phenyl)-[1,2,4]oxadiazol-5-yl]-phenoxy}-acetic acid] |
